pIC50, pKd: −log10 of the molar value. The source made the active and inactive calls. No cut-off for these calls is given here. Where a SMILES comes first, the peptide text is derived from it. Bridges are numbered along the chain shown (N, C = ends). Roman numbers before positions name the chains, in order. [ ]: non-standard residue; d: D form. The star is where a group is joined. Quinaldoyl(3-OH) = O=C(c1nc2ccccc2cc1O)*; NMeV = CN[C@H](C(=O)O)C(C)C; Pip = O=C(O)[C@@H]1CCCCN1; dDap = NC[C@@H](N)C(=O)O
Legend:
Clupeidae = assay: Binding affinity to Herring sperm DNA assessed as melting temperature by differential scanning calorimetric analysis
EBC-1 = assay: Cytotoxicity against human EBC-1 cells assessed as inhibition of cell growth incubated for 5 days by CellTiter-Glo luminescence assay; type: functional, cell-based; settings: EBC-1, 120 h
[1] = Stability in mouse plasma assessed as parent compound remaining measured after 24 hrs by LC-MS analysis; type: ADME, cell-free; settings: read-out: Stability
OVCAR-3 = assay: Cytotoxicity against human OVCAR-3 cells assessed as inhibition of cell growth incubated for 5 days by CellTiter-Glo luminescence assay; type: functional, cell-based; settings: OVCAR-3, 120 h
[2] = Binding affinity to biotinylated hairpin DNA (unknown origin) assessed as binding constant by SPR analysis
[3] = Stability in mouse plasma assessed as half-life at 1 uM measured upto 1440 min by UHPLC-MS/MS analysis; type: ADME, cell-free
IGROV-1 = assay: Cytotoxicity against human IGROV-1 cells assessed as inhibition of cell growth incubated for 5 days by CellTiter-Glo luminescence assay; type: functional, cell-based; settings: IGROV-1, 120 h
[4] = Retention time of the compound by HPLC analysis; type: physicochemical
[5] = Binding affinity to biotinylated hairpin DNA (unknown origin) at 0.312 to 5 uM by SPR analysis; settings: dose 0.312-5 µM
[6] = Stability in mouse plasma at 1 uM measured upto 1440 min by UHPLC-MS/MS analysis; type: ADME, cell-free; settings: 24 h

Row | Structure (SMILES) | Tm (Clupeidae) | pIC50 (EBC-1) | remaining at 24 h [1] | pIC50 (OVCAR-3) | pKd [2] | half-life at 1 µM [3] | pIC50 (IGROV-1) | Retention_time [4] | Activity [5] | Stability [6]
1 | CC(C)[C@H]1C(=O)OC[C@@H](NC(=O)c2nc3ccccc3cc2O)C(=O)N2CCCC[C@H]2C(=O)NCC(=O)N(C)CC(=O)N(C)[C@@H](C(C)C)C(=O)OC[C@@H](NC(=O)c2nc3ccccc3cc2O)C(=O)N2CCCC[C@H]2C(=O)NCC(=O)N(C)CC(=O)N1C | 102 °C | 8.85 | < 5% | 9.00 | 6.44 | 5.5 h | 8.80 | 21.6 min |  | 
2 | CC(C)[C@H]1C(=O)NC[C@@H](NC(=O)c2nc3ccccc3cc2O)C(=O)N2CCCC[C@H]2C(=O)NCC(=O)N(C)CC(=O)N(C)[C@@H](C2CCCCC2)C(=O)NC[C@@H](NC(=O)c2nc3ccccc3cc2O)C(=O)N2CCCC[C@H]2C(=O)NCC(=O)N(C)CC(=O)N1C | 86 °C |  |  |  | 6.40 |  |  | 18.9 min |  | 
3 | CC(C)[C@H]1C(=O)NC[C@@H](NC(=O)c2nc3ccccc3cc2O)C(=O)N2CCCC[C@H]2C(=O)NCC(=O)N(C)CC(=O)N2CCCCC[C@H]2C(=O)NC[C@@H](NC(=O)c2nc3ccccc3cc2O)C(=O)N2CCCC[C@H]2C(=O)NCC(=O)N(C)CC(=O)N1C | 88 °C |  |  |  | 6.15 |  |  | 16.4 min |  | 
4 | CC(C)[C@H]1C(=O)NC[C@@H](NC(=O)c2nc3ccccc3cc2O)C(=O)N2CCCC[C@H]2C(=O)NCC(=O)NCC(=O)N(C)[C@@H](C(C)C)C(=O)NC[C@@H](NC(=O)c2nc3ccccc3cc2O)C(=O)N2CCCC[C@H]2C(=O)NCC(=O)NCC(=O)N1C (I: {Quinaldoyl(3-OH)}-[dDap][Pip]GG[NMeV] / II: {Quinaldoyl(3-OH)}-[dDap][Pip]GG[NMeV]; amide I:1-II:C, I:C-II:1) |  |  |  |  |  |  |  | 15.1 min | inactive | 
5 | CC(C)[C@H]1C(=O)NC[C@@H](NC(=O)c2nc3ccccc3cc2O)C(=O)N2CCCC[C@H]2C(=O)NCC(=O)N(C)CC(=O)N(C)[C@@H](C(C)C)C(=O)NC[C@@H](NC(=O)c2nc3ccccc3cc2O)C(=O)N2CCCC[C@H]2C(=O)NCC(=O)N(C)CC(=O)N1C | 88 °C | 7.34 |  | 7.74 | 5.48 |  | 7.41 | 17.1 min |  | Stable
6 | CC(C)[C@H]1COC[C@@H](NC(=O)c2nc3ccccc3cc2O)C(=O)N2CCCC[C@H]2C(=O)NCC(=O)N(C)CC(=O)N(C)[C@@H](C(C)C)C(=O)NC[C@@H](NC(=O)c2nc3ccccc3cc2O)C(=O)N2CCCC[C@H]2C(=O)NCC(=O)N(C)CC(=O)N1C | 92 °C | 8.27 |  | 8.54 | 6.52 |  | 8.19 | 18.4 min |  | Stable
7 | CN1CC(=O)N2CCCC[C@H]2C(=O)NC[C@@H](NC(=O)c2nc3ccccc3cc2O)C(=O)N2CCCC[C@H]2C(=O)NCC(=O)N(C)CC(=O)N2CCCC[C@H]2C(=O)NC[C@@H](NC(=O)c2nc3ccccc3cc2O)C(=O)N2CCCC[C@H]2C(=O)NCC1=O | 97 °C |  |  |  | 6.30 |  |  | 15.7 min |  | 
8 | CC[C@H](C)[C@H]1C(=O)NC[C@@H](NC(=O)c2nc3ccccc3cc2O)C(=O)N2CCCC[C@H]2C(=O)NCC(=O)N(C)CC(=O)N(C)[C@@H]([C@@H](C)CC)C(=O)NC[C@@H](NC(=O)c2nc3ccccc3cc2O)C(=O)N2CCCC[C@H]2C(=O)NCC(=O)N(C)CC(=O)N1C | 91 °C |  |  |  | 6.40 |  |  | 18.8 min |  | 
9 | CC(C)[C@H]1C(=O)NC[C@@H](NC(=O)c2nc3ccccc3cc2O)C(=O)N2CCCC[C@H]2C(=O)NCC(=O)N(C)CC(=O)N(C)[C@@H](C(C)C)C(=O)OC[C@@H](NC(=O)c2nc3ccccc3cc2O)C(=O)N2CCCC[C@H]2C(=O)NCC(=O)N(C)CC(=O)N1C | 97 °C | 9.22 |  | 9.22 | 7.10 | 12 h | 8.92 | 19.6 min |  | 
10 | CN1CC(=O)N2CCCC[C@H]2COC[C@@H](NC(=O)c2nc3ccccc3cc2O)C(=O)N2CCCC[C@H]2C(=O)NCC(=O)N(C)CC(=O)N2CCCC[C@H]2C(=O)NC[C@@H](NC(=O)c2nc3ccccc3cc2O)C(=O)N2CCCC[C@H]2C(=O)NCC1=O | 94 °C |  |  |  | 6.02 |  |  | 16.6 min |  | 
11 | CCOC(=O)[C@H](CCc1ccccc1)N[C@@H](C)C(=O)N1CCC[C@H]1C(=O)O [ENALAPRIL] |  |  |  |  |  | 2.83 h |  |  |  | 
12 | CC(C)[C@H]1COC[C@@H](NC(=O)c2nc3ccccc3cc2O)C(=O)N2CCCC[C@H]2C(=O)NCC(=O)N(C)CC(=O)N(C)[C@@H](C(C)C)C(=O)OC[C@@H](NC(=O)c2nc3ccccc3cc2O)C(=O)N2CCCC[C@H]2C(=O)NCC(=O)N(C)CC(=O)N1C | 96 °C |  |  |  | 6.52 |  |  | 20.2 min |  | 
13 | CC[C@H](C)[C@H]1C(=O)NC[C@@H](NC(=O)c2nc3ccccc3cc2O)C(=O)N2CCCC[C@H]2C(=O)NCC(=O)N(C)CC(=O)N(C)[C@@H](C(C)C)C(=O)NC[C@@H](NC(=O)c2nc3ccccc3cc2O)C(=O)N2CCCC[C@H]2C(=O)NCC(=O)N(C)CC(=O)N1C | 89 °C |  |  |  | 6.70 |  |  | 18 min |  | 
14 | CC(C)[C@H]1C(=O)NC[C@@H](NC(=O)c2nc3ccccc3cc2O)C(=O)N2CCCC[C@H]2C(=O)NCC(=O)N(C)CC(=O)N2CCCC[C@H]2C(=O)NC[C@@H](NC(=O)c2nc3ccccc3cc2O)C(=O)N2CCCC[C@H]2C(=O)NCC(=O)N(C)CC(=O)N1C | 92 °C |  |  |  | 6.24 |  |  | 16.4 min |  | 
15 | CC(C)[C@H]1C(=O)NCC(=O)N(C)CC(=O)N2CCCC[C@H]2C(=O)NC[C@@H](NC(=O)c2nc3ccccc3cc2O)C(=O)N(C)[C@@H](C(C)C)C(=O)NCC(=O)N(C)CC(=O)N2CCCC[C@H]2C(=O)NC[C@@H](NC(=O)c2nc3ccccc3cc2O)C(=O)N1C |  |  |  |  |  |  |  | 16.8 min | inactive | 

— ChEMBL document CHEMBL5338828, “Structure-Activity Relationships of Bis-Intercalating Peptides and Their Application as Antibody-Drug Conjugate Payloads” (J Med Chem, 2023)
